Key:
[1] = Transport experiment in Caco-2 monolayers; assay type: in vitro ADME, human; settings: human, Caco-2
Description: (§1) The absorptions of troxerutin and its acylated derivatives was measured as described by Chen et al.. Caco-2 cells were cultured in DMEM supplemented with 10% FBS, 100 μg/mL streptomycin, and 100 U/mL penicillin at 37 °C in an atmosphere of 5% CO2 and the medium was changed every 2 days. Caco-2 cells used in this study were seeded onto 12-well translucent Transwell inserts (0.4 μm pore size, Corning Costar, Corning, NY, USA) at a density of 2.5 × 10^5 cells/mL and grown for 3 weeks. Transepithelial electrical resistance (TEER) and lucifer yellow were measured to detect the integrity of Caco-2 monolayers. TEER values were measured by using a voltammeter (Millicell ERS, Millipore, Bedford, MA, USA) and the amount of lucifer yellow transported to the basolateral side in a 2.5-h period was quantified by using a fluorospectrometer (Fluoroskan Ascent FL, Thermo Labsystems, Helsinki, Finland) at an excitation wavelength of 425 nm and emission wavelength of 530 nm. ALP activity was measured to detect the differentiation degree of Caco-2 monolayers by using an ALP Assay Kit.
(§2) Samples (100 μM, 0.5 mL) were placed on the apical (AP) side along with 1.5 mL of HBSS added to the basolateral (BL) side. […] The volume removed from the recipient side was replaced with fresh HBSS at 30, 60, 90, 120, and 150 min. The concentrations on the BL side were measured by HPLC. The apparent permeability coefficients (Papp, cm/s) were calculated according to the equation: Papp=dQ/dt×V/A×C0, where the dQ/dt is the permeability rate (μM/s) calculated from the slope of the amount of tested compounds transported versus time, V is the volume of the basolateral chamber (mL), A is the surface area of the inset (cm^2), and C0 is the initial concentration (μM) of the samples.

[2] = after oral consumption; cited from earlier work
Caco-2 monolayers = experiment: Transport experiment in Caco-2 monolayers; assay type: in vitro ADME, human; settings: Caco-2 monolayers
Description: as §1, §2

[3] = tested on: erythrocyte lysate membrane lipid peroxidation; experiment: Lipid peroxidation (MDA release) after complete hemolysis; assay type: cell-based, sheep; settings: erythrocytes completely hemolysed in cold ultrapure water, lysate treated with AAPH
[4] = Hydroxyl radical scavenging ability; settings: sample concentration 20 μM
Description: (§3) Scavenging abilities of hydroxyl and ABTS radicals, and ORAC were measured as described previously with some modifications. A 759S UV/Vis spectrophotometer (Lengguang Technology, Shanghai, China) was used to determine the absorbance of HO· at 532 nm and ABTS^·+ at 734 nm. ORAC analysis was conducted using a Fluoroskan Ascent microplate reader (Thermo Electron Corp., Waltham, MA, USA) at excitation and emission wavelengths of 485 and 530 nm, respectively. Trolox or vitamin C (VC) was used as a positive control, the sample concentration was 20 μM, and all experiments were repeated independently in triplicate.

[5] = 1-octanol/water partition coefficient (logP); assay type: physicochemical
Description: The 1-octanol/water partition coefficients of troxerutin and its propionyl derivatives were measured as previously described. Each compound was fully mixed with 1-octanol and then vigorously mixed with an equal amount of water. After equilibration for 30 min, the concentrations of compound in each layer were respectively measured by HPLC. The results are shown as common logarithms (logP).

[6] = ABTS radical scavenging ability; settings: sample concentration 20 μM
Description: as §3

[7] = ORAC assay (fluorescence quenching induced by AAPH); settings: 20 μM
Description: as §3

erythrocytes = experiment: Erythrocyte hemolysis induced by AAPH; assay type: cell-based, sheep; settings: 20 μM sample, 200 mM AAPH, 2.5 h, 37 °C
Description: The hemolysis study was performed according to the method of Zhang et al. with some modifications. Erythrocytes from healthy sheep were centrifuged at 770×g for 10 min at 4 °C and washed three times with PBS. Equal amounts of erythrocyte suspension (20%, v/v) and sample solution (20 μM) were mixed and the mixture was incubated for 20 min at 37 °C. After adding 200 mM AAPH, incubation was continued for a further 2.5 h at the same temperature. The final reaction system was diluted with 8 mL PBS and then centrifuged at 1200×g for 10 min at 4 °C. The degree of hemolysis in the supernatant was determined by measuring the absorbance at 540 nm. To obtain the complete hemolysate, ultrapure water was added to the mixture. PBS was used as a negative control and Trolox was used as a positive control. These values were measured using a 756S UV/Vis spectrophotometer (Lengguang Technology). The treated supernatant was collected to measure the level of MDA. All experiments were performed independently in triplicate. The hemolysis rate was calculated using the equation: Hemolysis rate%=OD540of sample/OD540of complete hemolysis×100%.

Papp A→B at 150 min, 100 μM [1] [×10⁻⁶ cm/s] | Papp B→A at 150 min, 100 μM [1] [×10⁻⁶ cm/s] | logP at 30 min [5] | SMILES | Bioavailability [2] [%] | UR (uptake ratio = Papp AP–BL/Papp BL–AP) (Caco-2 monolayers) | Papp at 150 min, 100 μM [1] [×10⁻⁶ cm/s] | Inhibition ability for membrane lipid peroxidation (MDA release), rank order [3] | Free radical scavenging ability HO· [4] | Free radical scavenging ability ABTS·+ [6] | Capacity to inhibit fluorescence quenching (ORAC), rank order [7] | Inhibition effects on AAPH-induced erythrocyte hemolysis, rank order (erythrocytes) | Inhibition of AAPH-induced erythrocyte hemolysis (erythrocytes)
48.9 ± 3.3 | 44 ± 2.98 | – | CC(C)NCC(O)COc1cccc2ccccc12 (centres unmarked) [Propranolol] | > 90 | – | – | – | – | – | – | – | –
1.54 ± 0.17 | 1.53 ± 0.21 | 1.51 ± 0.05 | CCC(=O)OCCOc1cc(O)c2c(=O)c(OC3OC(COC4OC(C)C(O)C(O)C4O)C(O)C(O)C3O)c(-c3ccc(OCCOC(=O)CC)c(OCCO)c3)oc2c1 (centres unmarked) [TDE] | – | – | – | troxerutin ≈ TME > TDE | 89.7 ± 1.8 c % | 81.5 ± 2.1 c % | troxerutin ≈ TME > TDE | troxerutin < TME ≈ TDE | effectively inhibited
0.99 ± 0.12 | 1.05 ± 0.12 | < 0 | CCC(=O)OCCOc1ccc(-c2oc3cc(OCCO)cc(O)c3c(=O)c2OC2OC(COC3OC(C)C(O)C(O)C3O)C(O)C(O)C2O)cc1OCCO (centres unmarked) [TME] | – | – | – | troxerutin ≈ TME > TDE | 95.2 ± 3.5 b % | 90.4 ± 3.0 b % | troxerutin ≈ TME > TDE | troxerutin < TME ≈ TDE | effectively inhibited
0.34 ± 0.05 | 0.35 ± 0.03 | – | C[C@@H]1O[C@@H](OC[C@H]2O[C@@H](Oc3c(-c4ccc(OCCO)c(OCCO)c4)oc4cc(OCCO)cc(O)c4c3=O)[C@H](O)[C@@H](O)[C@@H]2O)[C@H](O)[C@H](O)[C@H]1O [Troxerutin, troxerutin] | – | – | – | troxerutin ≈ TME > TDE | 97.1 ± 2.7 ab % | 96.8 ± 4.1 ab % | troxerutin ≈ TME > TDE | troxerutin < TME ≈ TDE | effectively inhibited
– | – | – | O=C1O[C@H]([C@@H](O)CO)C(O)=C1O [VC, vitamin C, reference compound] | – | – | – | – | 99.3 ± 0.05 a % | 100 ± 0.02 a % | – | – | –

SMILES | Papp A→B at 150 min, 100 μM [1] [×10⁻⁶ cm/s] | Papp B→A at 150 min, 100 μM [1] [×10⁻⁶ cm/s] | logP at 30 min [5] | Bioavailability [2] [%] | UR (uptake ratio = Papp AP–BL/Papp BL–AP) (Caco-2 monolayers) | Papp at 150 min, 100 μM [1] [×10⁻⁶ cm/s] | Inhibition ability for membrane lipid peroxidation (MDA release), rank order [3] | Free radical scavenging ability HO· [4] | Free radical scavenging ability ABTS·+ [6] | Capacity to inhibit fluorescence quenching (ORAC), rank order [7] | Inhibition effects on AAPH-induced erythrocyte hemolysis, rank order (erythrocytes) | Inhibition of AAPH-induced erythrocyte hemolysis (erythrocytes)
C[C@@H]1O[C@@H](OC[C@H]2O[C@@H](Oc3c(-c4ccc(O)c(O)c4)oc4cc(O)cc(O)c4c3=O)[C@H](O)[C@@H](O)[C@@H]2O)[C@H](O)[C@H](O)[C@H]1O [Rutin, rutin] | 0.06 ± 0.01 | 0.06 ± 0.02 | – | – | 1.00 ± 0.05 | 0.06 | – | – | – | – | – | –
